# Test system: HIV-1 LTR-III G-quadruplex (FAM/TAMRA-labeled LTR-III)
# Assay: FRET melting assay, LTR-III G4
# Format: binding
# Conditions: Table S1 primary screening, ligand:ODN 50:1, singlicate
# Method: To evaluate stabilizing properties of the ligands in a complex with oligodeoxyribonucleotides (ODNs) melting with fluorescence registration was used. ODN (0.5 μM) (Table 1), labeled with 6-carboxyfluorescein (FAM) and 6-carboxytetramethylrhodamine (TAMRA) at the 5′- and 3′-end, respectively, were folded in lithium cacodylate buffer (10 mM, pH 7.4) with 100 mM KCl by heating at 95 °C for 5 min and gradually cooling to r.t. GFP chromophore analogs (5 mM solution in DMSO) were diluted with the same buffer to the final concentration of 25 μM and mixed with an equal volume of 0.5 μM ODN solution resulting in a molar ratio of 50:1 (total volume was 50 μL). For the titration experiments molar ratios of 20:1 and 2:1 were used. Samples were analyzed using DTprime qPCR system (DNA-Technology LLC, Moscow, Russia). Fluorescence was registered by detection of FAM emission at 520 nm upon excitation at 495 nm in the temperature range of 30–95 °C with 1 °C/min gradient. Tm was determined using the instrument software and ΔTm was calculated relative to ODN Tm in a buffer solution containing 0.25% (v/v) DMSO. The primary and secondary screening were carried out in singlicate and triplicate, respectively.
row,SMILES,LTR-III ΔTm
1,COc1ccc2cc(CO)ccc2c1 [N 49],-0.1 °C
2,CC1=CC(C)(C)N(C)c2ccc(C=CC3=NC(=Cc4ccc5c(c4)C(C)=CC(C)(C)N5C)C(=O)N3CCCC(=O)O)cc21 [N 62],0.6 °C
3,CC1=NC(=Cc2cc3c4c(c2)CCCN4CCC3)C(=O)N1CCO [N 111],1 °C
4,CC1=CC(C)(C)N(C)c2ccc(C=C3N=C(C)N(CCCCO)C3=O)cc21 [N 141],0.2 °C
5,CC1=NC(=Cc2cc3c4c(c2)CCCN4CCC3)C(=O)N1CCCC(=O)O [N 152],0.3 °C
6,Cc1ccc(C(O)=CC2=NC(=Cc3ccc(O)cc3)C(=O)N2C)cc1 [N 154],-0.1 °C
7,CCN(CC)c1ccc(C=C2N=C(C)N(CCCCO[Si](c3ccccc3)(c3ccccc3)C(C)(C)C)C2=O)cc1 [N 162],0.2 °C
8,CCN(CC)c1ccc(C=C2N=C(C)N(CCCCO)C2=O)cc1 [N 182],-0.1 °C
9,CCN(CC)c1ccc(C=C2N=C(C)N(CCCCCl)C2=O)cc1 [N 189],0.2 °C
10,COc1ccc(C=C2N=C(C=C(O)c3ccc(Br)cc3)N(C)C2=O)cc1 [N 537],-0.3 °C
11,COc1ccc(C=C2N=C(C=C(O)c3cccs3)N(C)C2=O)cc1 [N 539.1],0 °C
12,CC1=NC(=Cc2ccc3cc(N4CCCC4)ccc3c2)C(=O)N1C [N 555.3],0.7 °C
13,CCNc1ccc2cc(Br)ccc2c1 [N 576.2],0 °C
14,Oc1ccc2cc(Br)ccc2c1 [N 576.3],0 °C
15,CCN(CC)c1ccc2c(C=CN(C)C)cc(=O)oc2c1 [N 582.1],0 °C
16,COc1ccc(C=C2N=CN(C)C2=O)cc1 [N 599.2],-0.7 °C
17,CCN(CC)c1ccc2cc(C=C3N=C(C)N(C)C3=O)ccc2c1 [N 601.23],-0.7 °C
18,CN1C=NC(=Cc2ccc(O[Si](c3ccccc3)(c3ccccc3)C(C)(C)C)cc2)C1=O [N 624],-0.5 °C
19,CCN(CC)c1ccc(C=C2N=C3C=CC=CN3C2=O)cc1 [N 641],-0.5 °C
20,CC1=NC(=Cc2ccc3c(c2)CCN3)C(=O)N1C [N 652.3],0.3 °C
21,CC1=NC(=Cc2ccc(N3CCCCC3)cc2)C(=O)N1C [N 665],-0.3 °C
22,CC1=NC(=Cc2ccccc2O)C(=O)N1 [N 702.1],0 °C

row,SMILES,LTR-III ΔTm
1,CC1=NC(=Cc2ccc(N3CCCC3)cc2)C(=O)N1C [N 704],-0.2 °C
2,CC1=NC(=Cc2ccc(N3CCCCCC3)cc2)C(=O)N1C [N 708.2],0.2 °C
3,CC1=NC(=Cc2ccc(N3CCC3)cc2)C(=O)N1C [N 710.12],0.1 °C
4,CN1C(=O)C(=Cc2ccncc2)N=C1C=Cc1ccncc1 [N 768],0.9 °C
5,CC1=NC(=Cc2cccc(F)c2O)C(=O)N1C [N 781],0 °C
6,CC1=NC(=Cc2ccc3[nH]c(C)c(C)c3c2)C(=O)N1C [N 792],0.2 °C
7,COc1ccc(C=CC2=NC(=Cc3ccncc3)C(=O)N2C)cc1 [N 813],0.6 °C
8,CC1=NC(=Cc2ccc[nH]2)C(=O)N1C [N 815],-0.1 °C
9,O=C1C(=C2N=C3C=CC=CN3C2=O)N=C2C=CC=CN12 [N 817.2],-0.1 °C
10,O=C1/C(=C/c2ccncc2)N=C2C=CC=CN12 [N 817],0 °C
11,CNC(=O)C(=Cc1ccc(C#N)cc1)N=[N+]=[N-] [N 830A],-0.1 °C
12,CNC(=O)C(=Cc1ccccc1)N=[N+]=[N-] [N 830b],-0.2 °C
13,CNC(=O)C(=Cc1ccc(C#N)cc1)N=P(c1ccccc1)(c1ccccc1)c1ccccc1 [N 831],0 °C
14,CNC(=O)C(=Cc1ccccc1)N=P(c1ccccc1)(c1ccccc1)c1ccccc1 [N 832],-0.5 °C
15,CNC(=O)C(=Cc1ccncc1)N=P(c1ccccc1)(c1ccccc1)c1ccccc1 [N 833],-0.6 °C
16,CC1=NC(=Cc2ccc(O)cc2O)C(=O)N1C [N 844.1],-0.1 °C
17,CN1C(=O)C(=Cc2cc(Br)c(O)c(Br)c2)N=C1C=Cc1ccncc1 [N 848.1],-1.8 °C
18,COc1ccc(OC)c(C=C2N=C(C=Cc3cc(Br)c(O)c(Br)c3)N(C)C2=O)c1 [N 851A],1.4 °C
19,COc1ccc(O)c(C=C2N=C(C=Cc3cc(Br)c(O)c(Br)c3)N(C)C2=O)c1 [N 851B],1.2 °C
20,CC1=NC(=Cc2cc(F)c(O)c(F)c2)C(=O)N1 [N 853],-0.9 °C
21,CN1C(=O)C(=Cc2ccc(O)cc2O)N=C1C=Cc1cc(Br)c(O)c(Br)c1 [N 855],0.4 °C
22,CN1C(=O)C(=Cc2ccc(O)cc2)N=C1C=Cc1ccc2cc(N(C)C)ccc2c1 [N 861],0 °C

row,SMILES,LTR-III ΔTm
1,O=C1NC(/C=C/c2ccncc2)=NC/1=C\c1cc(F)c(O)c(F)c1 [N 863],0 °C
2,COc1cc(O)ccc1C=C1N=C(C)N(C)C1=O [N 865],0.8 °C
3,COc1cc(O)ccc1/C=C1N=C(/C=C/c2ccncc2)N(C)C\1=O [N 871B],0.4 °C
4,CN1C(=O)C(=Cc2ccc(O)cc2)N=C1C=Cc1cccc(C(F)(F)F)c1 [N 873],0.4 °C
5,CN1C(=O)C(=Cc2ccc(O)cc2)N=C1C=Cc1cc(Cl)nc(Cl)c1 [N 886],-0.2 °C
6,CC1=NC(=Cc2cc(Cl)c(O)c(Cl)c2)C(=O)N1C [N 892],-1 °C
7,CN1C(=O)C(=Cc2ccc(O)cc2)N=C1C=Cc1c(F)c(F)c(O)c(F)c1F [N 893],-0.4 °C
8,CN1C(=O)C(=Cc2ccc(SSc3ccc(C=C4N=C(C=Cc5cc(Br)c(O)c(Br)c5)N(C)C4=O)cc3)cc2)N=C1C=Cc1cc(Br)c(O)c(Br)c1 [N 898],0.1 °C
9,CN1C(=O)C(=Cc2cc(Cl)c(O)c(Cl)c2)N=C1C=Cc1ccncc1 [N 901],0.4 °C
10,CN1C(=O)C(=Cc2ccc(O)cc2)N=C1C=Cc1cc(Cl)c(O)c(Cl)c1 [N 914],-0.8 °C
11,COc1cc(O)ccc1C=C1N=C(C=Cc2cc(Cl)nc(Cl)c2)N(C)C1=O [N 960b],0.7 °C
12,COc1cc(O)ccc1C=C1N=C(C=Cc2c(F)c(F)nc(F)c2F)N(C)C1=O [N 967],0.8 °C
13,COc1cc(O)cc(OC)c1C=C1N=C(C=Cc2c(F)c(F)nc(F)c2F)N(C)C1=O [N 971],0.1 °C
14,COc1cc(O)cc(OC)c1C=C1N=C(C=Cc2cc(Cl)nc(Cl)c2)N(C)C1=O [N 973],2.3 °C
15,COc1cc(O)cc(OC)c1C=C1N=C(C)N(C)C1=O [N 976],0.5 °C
16,COc1cc(/C=C2N=C(/C=C/c3c(F)c(F)nc(F)c3F)N(C)C\2=O)cc(OC)c1O [N 980],1 °C
17,CC1=NC(=Cc2ccc(C)o2)C(=O)N1C [N 1020],-0.2 °C
18,CC1=NC(=Cc2cccs2)C(=O)N1C [N 1021],0.3 °C
19,COc1c(O)ccc(C=C2N=C(C)N(C)C2=O)c1OC [N 1027.1],-0.1 °C
20,COc1cc(/C=C2\N=C(C)N(C)C2=O)c(OC)cc1O [N 1036],0.5 °C
21,COc1cc(O)ccc1/C=C1N=C(/C=C/c2cccs2)N(C)C\1=O [N 1039],1.1 °C
22,COc1c(O)ccc(/C=C2\N=C(C)N(C)C2=O)c1O [N 1042],1.4 °C

row,SMILES,LTR-III ΔTm
1,COc1cc(/C=C2N=C(/C=C/c3ccncc3)N(C)C\2=O)c(OC)cc1O [N 1048],1.5 °C
2,COc1cc(O)ccc1C=C1N=C(C=CN2CCCC2)N(C)C1=O [N 1118],3 °C
3,COc1cc(O)ccc1C=C1N=C2C=CC=CN2C1=O [N 1123],0.3 °C
4,COc1cc(O)ccc1/C=C1\N=C(C(C)=O)N(C)C1=O [N 1124],1.3 °C
5,COc1cc(O)ccc1C=C1N=C(Cc2ccccc2)N(C)C1=O [N 1135],0 °C
6,COc1cc(O)ccc1/C=C1\N=C(C(=O)c2ccccc2)N(C)C1=O [N 1139],0.6 °C
7,COc1cc(O)ccc1C=C1N=C(C(=Cc2ccncc2)c2ccccc2)N(C)C1=O [N 1142],0.1 °C
8,CCCCN(CCCC)c1ccc(C=C2N=C(C)N(C)C2=O)cc1 [SA 33],0.2 °C
9,CN1C(=O)C(=Cc2ccc(O)c(F)c2)N=C1c1ccccc1 [SA 49.1],0 °C
10,CC1=NC(=Cc2ccc(O)c(F)c2)C(=O)N1CC(N)=O [SA 99],0.1 °C
11,O=C1CN2C(=O)C(=Cc3ccc(O)cc3)N=C2C(=O)N1 [SA 102],0.2 °C
12,CN1C(=O)CN2C(=O)C(=Cc3ccc(O)cc3)N=C2C1=O [SA 108],-0.1 °C
13,CCOC(=O)CN1C(=O)C(=Cc2cccc([N+](=O)[O-])c2)N=C1C [SA 111],-0.1 °C
14,CCOC(=O)CN1C(=O)C(=Cc2ccc(OC)cc2)N=C1C [SA 117],-0.2 °C
15,CC1=NC(=Cc2cccc([N+](=O)[O-])c2)C(=O)N1CC(N)=O [SA 128],0.1 °C
16,COc1ccc(C=C2N=C3C(=O)NC(=O)CN3C2=O)cc1 [SA 130],0.4 °C
17,CCOC(=O)CN1C(=O)C(=Cc2ccccc2)N=C1C [SA 148],-1.3 °C
18,CC1=NC(=Cc2ccccc2)C(=O)N1CC(N)=O [SA 152],-0.3 °C
19,COc1ccc(C=C2N=C(Nc3ccc(Br)cc3)N(C)C2=O)cc1 [SA 158],0.2 °C
20,COc1ccc(C=C2N=C(Nc3ccc(OC)cc3)N(C)C2=O)cc1 [SA 168],-0.4 °C
